Literature values in US12551470B2, “Metabolism enhancing compositions” (Red Mountain Med Spa, LLC, priority 2022, dated 2026).

Assays:
[1] = compared to the other phytochemicals (11 phytochemicals, Tomer et al., J. Med. Food 2007)
[2] = compared to the other phytochemicals (11 phytochemicals, Tomer et al., J. Med. Food 2007); remark: listed apart in the source

O=C(O)CCCC[C@@H]1CCSS1 [α-lipoic acid, (R)-5-(1,2-dithiolan-3-yl)pentanoic acid]
ORAC values [1]: low | TOSC values [2]: high
